Measured values: patent publication US10226514B2, “Methods and compositions for reducing blood glucose levels” (The Children's Medical Center Corporation, priority 2011, dated 2019)
“Also recorded” adds a separate entry of the source.

Experiments:
XBP1s [1] = assay: XBP1s protein levels in Ad-XBP1s-infected MEFs (western blot); type: cell-based, mouse
Description: (§1) MEF cells were from American Type Tissue Collection (ATCC). These cells were grown in Dulbecco's Modified Eagel Medium (DMEM) supplemented with 10% fetal bovine serum (FBS), 10 U/ml penicillin and 1 μg/ml streptomycin at 37° C. and 5% CO2. Fao cells were maintained in RPMI 1640 medium (Invitrogen) supplemented with 10% fetal bovine serum (FBS), 10 U/ml penicillin and 1 μg/ml streptomycin.
(§2) Adenovirus expressing XBP1s T48A, XBP1s S61A, XBP1s T48A/S61A and MKK6Glu were produced with ViraPower Adenoviral Expression System (Invitrogen) according to manufacturer's instruction. Briefly, pAD-XBP1s T48A, pAD-XBP1s S61A, pAd-XBP1s T48A/S61A and pAd-MKK6Glu were linearized by restriction endonuclease digestion with PacI and transfected to 293A cells by Lipofectamine. The media was changed with fresh media every other day until the cytopathic effect was observed. When cytopathic effect reached to 80%, cells were collected by centrifugation. The pellet was resuspended in PBS and subjected to freezing and thawing cycles at −80° C. and 37° C. for 4 times. The supernatant containing the virus was prepared by centrifugation at 4,000 rpm for 20 min at room temperature. Ad-XBP s and Ad-Cre were generated as described previously (Ozcan, L., et al. (2009) Cell metabolism 9:35-51). For infection, cells were incubated with adenovirus in reduced volume of medium containing 1% FBS and antibiotics. Cells were gently rocked every 15 min for 1 h to increase efficiency of infection, and then fresh medium were added and cells were incubated for additional 15 h or 23 h.
Cells were lysed in lysis buffer (25 mM Tris-HCl, pH 7.4; 10 mM NaF; 10 mM Na4P207; 2 mM Na3VO4; 1 mM EGTA; 1 mM EDTA; 1% NP-40; 10 μg/ml Leupeptin; 10 μg/ml Aprotinin; 1 mM PMSF and 20 nM Okadaic acid). After 20 min-rotation at 4° C., cell lysates were centrifuged at 13,200 rpm for 20 min at 4° C. Supernatants were collected and protein concentration was quantified by using Protein Assay Kit (Bio-Rad). The concentrations of protein were normalized with lysis buffer to have equivalent amounts of protein and volume. Protein was denatured by boiling at 100° C. for 5 min in Laemmli buffer. The lysates were cooled to room temperature before loading for western blot analysis.
Western blot analysis was performed as previously described (Ozcan, L., et al. (2009) Cell metabolism 9:35-51). Samples from cell lysates or tissue lysates were resolved by SDS-PAGE and then transferred to polyvinylidene fluoride (PVDF) membrane. After 1 h blocking at room temperature using 10% blocking reagent (Roche), membrane was incubated overnight with primary antibody in Tris-buffered saline solution/Tween (TBST) containing 10% blocking reagent at 4° C. After the incubation, membrane was washed three times in TBST and incubated with secondary antibody for 1 h at room temperature. After three-time washing in TBST, membrane was developed using a chemiluminescence assay system (Roche) and exposed to Kodak films. Relative protein levels were quantified by Image J program.

XBP1s [2] = assay: XBP1s protein degradation after cycloheximide; type: cell-based, mouse; conditions: anisomycin 25 ng/ml two hours, then cycloheximide 10 μg/ml, vs vehicle
Description: MEF cells were infected with Ad-XBP1s. After 24 h post-infection, cells were treated with anisomycin at 25 ng/ml or vehicle (DMSO) for 2 h. Translation […] inhibitor cycloheximide (10 μg/ml, Sigma) was added to the medium. Cells were flash frozen in liquid nitrogen at various time points. Protein levels were determined via immunoblotting.

XBP1s [3] = assay: Cytoplasmic and nuclear XBP1s protein in cells; type: cell-based, mouse; conditions: anisomycin 25 ng/ml, two hours
Description: Cytoplasmic and nuclear protein fractions were extracted from cells by using nuclear protein extraction kit from Active Motif (Carlsbad, Calif.). Cells were maintained in 10 cm tissue culture dishes for nuclear/cytoplasmic extraction. After removal of the media, cells were washed with ice-cold phosphate buffered saline (PBS) containing phosphatase inhibitors. Subsequently, 3 ml of ice-cold PBS with phosphatase inhibitors was added and then cells were scrapped out of the dish. Collected cells were separated from PBS by centrifugation for 5 minutes at 500 rpm and resuspended with 500 μl of 1× hypotonic buffer. After 15-minute incubation in hypotonic buffer on ice, 25 μl of supplied detergent was added and cells were vortexed 10 seconds. Cells were centrifuged for 30 seconds at 14,000×g and supernatant (cytoplasmic fraction) was saved for further analysis. Remaining pellet, which contains nuclei, were resuspended with 50 μl of provided complete lysis buffer with 1 mM dithiothreitol (DTT), vortexed 10 seconds, and incubated for 30 minutes on ice. After 30-second vortexing and 10-minute centrifugation at 14,000×g, the supernatant was collected and analyzed as nuclear fraction.

XBP1s [4] = assay: XBP1s levels in Ad-XBP1s-infected Fao cells; type: cell-based; conditions: Ad-XBP1s-infected Fao cells (rat hepatoma)
Description: as §1
as §2, with “Ad-XBP s and Ad-Cre were generated as described previously (Ozcan, L., et al. (2009) Cell metabolism 9:35-51). For infection, cells were incubated with adenovirus in reduced volume of medium containing 1% FBS and antibiotics. Cells were gently rocked every 15 min for 1 h to increase efficiency of infection, and then fresh medium were added and cells were incubated for additional 15 h or 23 h.” left out
Western blot analysis was performed as previously described (Ozcan, L., et al. (2009) Cell metabolism 9:35-51). […] Relative protein levels were quantified by Image J program.

XBP1s mRNA = XBP1s mRNA levels and stability (Q-PCR, actinomycin D); type: cell-based, mouse
Description: Total RNA was extracted from cells or animal tissues using Trizol reagent (Invitrogen) and transcribed into cDNA using cDNA synthesis kit (Bio-Rad). The gene expression analysis was performed with iQ5 Multicolor Real-Time PCR Detection System (Bio-Rad) with SYBR Green Supermix (Bio-Rad). The mRNA level was normalized to 18S as a house keeping gene. The primer sequences used were:
For mRNA stability determination, MEF cells were infected with Ad-XBP1s. Sixteen hour after the infection, cells were treated with anisomycin (25 ng/ml) or vehicle (DMSO) for 1 h. Actinomycin D (10 μg/ml, Sigma) was added to the medium. Cells were flash frozen in liquid nitrogen at various time points. mRNA levels were determined via Q-PCR.

COc1ccc(C[C@H]2NC[C@H](O)[C@H]2OC(C)=O)cc1 [anisomycin]
XBP1s protein levels (XBP1s [1]; Ad-XBP1s-infected MEFs, increasing doses, two hours): robust increase in XBP1s protein levels | XBP1s protein levels (XBP1s [1]; Ad-XBP1s-infected MK2−/− cells vs control cells): dramatically reduced | XBP1s levels (XBP1s [1]; Ad-XBP1s-infected MKK3,6−/− cells): no increase in XBP1s levels | XBP1s levels (XBP1s [1]; Ad-XBP1s-infected p38α−/− cells): lacked the ability to upregulate XBP1s levels | XBP1s protein levels (XBP1s [1]; JNK1,2−/− cells): significant increase in XBP is protein | XBP1s levels (XBP1s [1]; MKK4,7−/− cells): dramatically increased XBP1s levels | XBP1s proteins in Ad-LacZ-infected control cells (XBP1s [1]; up to 25 ng/ml anisomycin): No upregulation of XBP1s proteins | degradation rate of XBP1s protein (XBP1s [2]): No differences in the degradation rate of XBP1s protein | cytoplasmic levels of XBP1s vs vehicle-treated cells (XBP1s [3]): 28.8 times | nuclear levels of XBP1s vs vehicle-treated cells (XBP1s [3]): 141.8 times | XBP1s levels (XBP1s [4]): dramatically upregulating their XBP1s levels | enhanced stability of XBP1s mRNA (XBP1s mRNA; MK2−/− cells, anisomycin 25 ng/ml): completely lost | XBP1s mRNA stability (XBP1s mRNA; TTP−/− cells, anisomycin 25 ng/ml one hour, actinomycin D 10 μg/ml): capable of increasing XBP1s mRNA stability | XBP1s mRNA levels (XBP1s mRNA; XBP1s expressing control cells, one hour): dramatic increase in mRNA of XBP1s; also recorded: increased the mRNA levels of XBP1s in a dose dependent manner
